According to patent US4966962A, “Reverse analogue of actinomycin D” (Trustees of Boston University, priority 1988, dated 1990):
Like-named read-outs stand apart in the source and are kept apart here. *1 amine or outer side, *2 acyl side, *3 side chain or, on linkers, in order; H or OH if unused. Where a SMILES comes first, the peptide text is derived from it. Bridges are numbered along the chain shown (N, C = ends). Roman numbers before positions name the chains, in order. [ ]: non-standard residue; d: D form. Actinocin(9to1) = Cc1c2oc3c(C)ccc(C(=O)[*:1])c3nc-2c(C(=O)[*:2])c(N)c1=O; NMeV = CN[C@H](C(=O)O)C(C)C; Sar = CNCC(=O)O

Assays:
[1] = system: supercoiled closed-circular pBR322 DNA; test: Cleavage of closed circular pBR322 DNA; assay type: biochemical; details: for Percentage of closed circular pBR322 DNA cleaved: 20° C., 1 h, Na2S2O4, FeCl2
Procedure: The cleavage of DNA was followed by monitoring of the conversion of supercoiled closed-circular pBR322 DNA to open-circular DNA (analyzed by agarose gel electrophoresis and quantitated by staining with 0.5 ug/mL of ethidium bromide for 30 min and densitometry; (Table II). SAD and RAD show strong DNA-cleaving ability in the presence of sodium hydrosulfite and ferrous chloride. Presumably, sodium hydrosulfite acts as a reducing agent and regenerates Fe(II) from Fe(III) to produce a continuous source of the active metal ion. When the DNA-cleaving reaction with the analogues was performed at 20° C., the ratio of cleaved DNA (open circular form DNA versus closed circular DNA) was almost maximum within 1 h. […] Cleavage of DNA by the analogues is aided by the actinomycin chromopeptide moiety, which acts as a site-specific binder to DNA, and is effected by the aminoquinone function which is chelated to the ferrous ion during the process, and this is the likely candidate which generates the radical species.
Plasmid DNA pBR322 (0.5 ug) was dissolved in /8 μL of a reaction buffer (5 mM […], 10 mM Tris-HCl). To this solution, 1 μL of the 10 mM aqueous solution of the agent containing 1 mM FeCl2 was added. The mixture was incubated for 0.5-2 h at 20° or 37° C. Then, the incubation mixture was mixed with 10 uL of sample loading buffer (50% glycerin in 2 X Boyer's buffer containing 0.01% bromophenol blue). Finally, 5 uL of the mixture was analyzed by 0.7% agarose gel electrophoresis (120 V, Boyer's buffer; the migration distance of bromophenol blue was 5.0 cm). The gel was stained with […] of ethidium bromide and then quantitated by densitometry.
^a Ten microliters of 200 u M pBR322 DNA nucelotides in UM 10 mM
TrisHCl (pH 7.8) and 50 mM NaCl, containing 4 mM Na2 --S2
O4 and 100 μM FeCl2, was incubated with drug concentration a
20° C. for 1 h; the reaction mixture was kept saturated with air
throughout the incubation period.
^b Percentage of DNA was calculated from the amounts of openand
closedcir- cular DNA in the incubation mixture.

[2] = system: P388 cells; test: Inhibition of nucleic acid synthesis in P388 cells in vitro; assay type: cell-based, murine
Source text: In addition to the P388 cells, this inhibitory activity in human carcinoma HT-29 grown in tissue culture has been also examined. The values of the drug concentration producing 50% inhibition of the incorporation of [^3 H]-thymidine and [^14 C] uridine into nucleic acid macromolecules are presented in Table V. These values are taken as estimates of the inhibition of DNA and RNA synthesis. […] Furthermore, the inhibitory activities of these analogues are three-to fivefold higher than AMD; the order of potency of the analogues for their inhibition of DNA synthesis is:
DNA and RNA synthesis in P388 and HT-29 cells lines was monitored in the presence of drugs, and the rates of inhibition of their synthesis were estimated from the amounts of [2-^14 C]-uridine and [^3 H]-thymidine into RNA and DNA, respectively, according to the methods described previously.
^a Human colon carcinoma in culture, IC50, drug concentration
producing a 50% inhibition of incorporation of precursor [^3 H]
thymidine into DNA and [^14 C] uridine into RNA in the cell lines,
isolated as acid preciptable materials. Data are average of replicate

[3] = system: P388/S (adriamycin sensitive) leukemia; test: Antitumor activity in vivo, P388/S leukemia; set-up: species or system mice; details: for tumor free survivors/total on day 60: P388/S, at optimal dose, ip days 1, 5, 9; for effectiveness relative to AMD with respect to %ILS and long-time survivors: P388 lymphocytic leukemia in mice
Procedure: The analogues were tested for their antitumor activities in P388 lymphocytic leukemia in male BDF1 mice.
^a Male CDF1 mic inoculated ip: 10^6 cells inoculum, day 0.
Drugs administered in 10% dimethyl sulfoxidesaline on days 1, 5, and 9. %
ILS = percent increase in life span. Fractions in parentheses = tumor fre
survivors/total on day 60^b. P388/S (adriamycin sensitive) and
P388/ADR (adriamycin resistant) tumors were evaluated in the same
experiment with agent listed.

[4] = system: B16 melanoma; test: In vivo antitumor activity against B16 melanoma; set-up: species or system BDF1 mice; details: for % ILS / survivors on day 65/total injected / MST (range), median survival time: at optimal dose, ip days 1, 5, 9; for MST (range), median survival time: range of days of death; for optimal dose: ip, days 1, 5, 9
Procedure: ^a 0.2 mL of 1:5 (weight/volume) brei of B16 melanoma implanted
ip on day 0 in groups of nine BDF1 mice. Drugs administered ip^b
MST (range), median survival time in days (range of days for death of
individual animal). ^c % ILS (surv), percent increase in life span
(survivors on day 65/total injected).

[5] = Toxic deaths in nontumored mice treated in parallel (colon 38 experiment); assay type: in vivo
Source text: × 100; in parenthesis, number of over 100 day survivors/number of
mice in a group of nontumored mice treated in parallel with the
tumorbearing mice and observed for 100 days.

[6] = system: mammary MX-1; test: Treatment of mammary MX-1 tumor; assay type: in vivo; details: at the doses tested
[7] = system: lung LX-1; test: Treatment of lung LX-1 tumor; assay type: in vivo; details: at the doses tested
[8] = system: P388 Leukemia; test: Minimum effective dose in P388 tumor bearing mice; assay type: in vivo; details: for therapeutic index MTD/MED: MTD in normal BDF1 mice / MED in P388 tumor bearing mice; for MED (minimum effective dose), dose giving 45% increase in life span over control: ip once on days 1, 5, and 9, from plotted log-dose response data
Source text: ^a Drugs administered ip once on days 1, 5, and 9 starting 1 day afte
tumor implantation. Determinations were made from analysis of plotted
logdose response data. ^b MED (minimum effective dose) is the dose
(milligram/killogram) providing an increase in life span of 45% over

[9] = Maximum tolerated dose (LD10) in tumor-free male mice; details: ip days 1, 5, 9; deaths observed during 21 days; from plot of log dose vs percent mortality
Procedure: The analogues were also tested in tumor-free male mice for their LD10 values (Table XIV). The animals were given a broad range of doses (ip) on days 1, 5, and 9. The maximum tolerated doses of AMD and the analogues that caused death in only 10% of the tested animals in 21 days (i.e., LD10) were recorded as MTD. […] On the basis of these values, the calculated therapeutic index values of SAD is 96, and those of RAD I, II, and III are 60, 67, and 70, respectively.
control in P388 tumor bearing mice. ^c MTD (maximum tolerated dose) i
the lethal dose (milligram/kilogram) for 10% normal BDF1 male mice
days). Values were calculated from a plot of log dose vs percent

[10] = [3H]thymidine incorporation, read-out: IC50, DNA synth
[11] = [14C]uridine incorporation, read-out: IC50, RNA synth
[12] = dose 0.15 mg/kg iv days 1, 5, 9
[13] = dose 0.30 mg/kg iv days 1, 5, 9
[14] = dose 0.60 mg/kg iv days 1, 5, 9
[15] = dose 1.20 mg/kg iv days 1, 5, 9

Row | SMILES | Percentage of closed circular pBR322 DNA cleaved [1] [%] | Percentage of closed circular pBR322 DNA cleaved ([1]; concn 100 M (so in the source)) [%] | IC50 [2, 10] [nM] | IC50 [2, 11] [nM] | tumor free survivors/total on day 60 [3] | % ILS [4] [%] | survivors on day 65/total injected [4] | MST (range), median survival time [4] | optimal dose [4] [μg/kg per inj] | toxic deaths [5, 12] | toxic deaths [5, 13] | toxic deaths [5, 14] | response of mammary MX-1 to treatment [6] | response of lung LX-1 to treatment [7] | therapeutic index MTD/MED [8] | MED (minimum effective dose), dose giving 45% increase in life span over control [8] [milligram/killogram] | MTD (maximum tolerated dose), lethal dose for 10% of normal mice (LD10) [9] [milligram/kilogram] | effectiveness relative to AMD with respect to %ILS and long-time survivors [3] | toxic deaths [5, 15] | Percentage of closed circular pBR322 DNA cleaved ([1]; concn 25 M (so in the source)) [%] | further results
1 | Cc1c2oc3c(C)ccc(C(=O)N[C@@H]4C(=O)N[C@H](C(C)C)C(=O)N5CCC[C@H]5C(=O)N(C)CC(=O)N(C)[C@@H](C(C)C)C(=O)O[C@@H]4C)c3nc-2c(C(=O)N[C@@H]2C(=O)N[C@H](C(C)C)C(=O)N3CCC[C@H]3C(=O)N(C)CC(=O)N(C)[C@@H](C(C)C)C(=O)O[C@@H]2C)c(N)c1=O [AMD (1), Actinomycin D] (I: T[dV]P[Sar][NMeV] / II: T[dV]P[Sar][NMeV]; ester I:1-I:C, II:1-II:C; linker I:N-II:N via Actinocin(9to1)) | 10 | 22 | 1100 ± 90 | 50 ± 5 | 1/8 | 48 | 2/9 | 43(36-54) days | 250 | 1/9 | 0/9 | 4/9 | practically ineffective | practically ineffective | 4 | 0.0625 | 0.25 | – | – | – | DNA cleaving efficiency relative to RAD III (3c) and SAD (2) [1]: about 30%; toxic deaths ([5]; dose 0.075 mg/kg iv days 1, 5, 9): 0/9; toxic deaths ([5]; dose 0.45 mg/kg iv days 1, 5, 9): 1/9
2 | Cc1c2oc3c(C)c4oc(-c5ccccc5)nc4c(C(=O)N[C@@H]4C(=O)N[C@H](C(C)C)C(=O)N5CCC[C@H]5C(=O)N(C)CC(=O)N(C)[C@@H](C(C)C)C(=O)O[C@@H]4C)c3nc-2c(C(=O)N[C@@H]2C(=O)N[C@H](C(C)C)C(=O)N3CCC[C@H]3C(=O)N(C)CC(=O)N(C)[C@@H](C(C)C)C(=O)O[C@@H]2C)c(N)c1=O [RAD II (3b)] | – | – | 780 ± 66 | 70 ± 5 | 4/8 | 103 | 5/9 | 59(53-59) days | 300 | 1/9 | 0/9 | 0/9 | – | – | 67 | 0.03 | 2.00 | two-to threefold | 4/9 | – | –
3 | Cc1c2oc3c(C)c4oc(CC(=O)NCCCCN)nc4c(C(=O)N[C@@H]4C(=O)N[C@H](C(C)C)C(=O)N5CCC[C@H]5C(=O)N(C)CC(=O)N(C)[C@@H](C(C)C)C(=O)O[C@@H]4C)c3nc-2c(C(=O)N[C@@H]2C(=O)N[C@H](C(C)C)C(=O)N3CCC[C@H]3C(=O)N(C)CC(=O)N(C)[C@@H](C(C)C)C(=O)O[C@@H]2C)c(N)c1=O [RAD III (3c)] | 40 | 58 | 430 ± 38 | 55 ± 7 | 6/8 | 114 | 6/9 | 62(53-61) days | 300 | – | 0/9 | 4/9 | practically ineffective | practically ineffective | 70 | 0.05 | 3.50 | two-to threefold | 2/9 | 45 | Percentage of closed circular pBR322 DNA cleaved ([1]; concn 50 M (so in the source)): 50%; P388/S optimal dose ([3]; ip on days 1, 5, and 9): 1.0 mg/kg
4 | Cc1c2oc3c(C)c(O)c(N)c(C(=O)N[C@@H]4C(=O)N[C@H](C(C)C)C(=O)N5CCC[C@H]5C(=O)N(C)CC(=O)N(C)[C@@H](C(C)C)C(=O)O[C@@H]4C)c3nc-2c(C(=O)N[C@@H]2C(=O)N[C@H](C(C)C)C(=O)N3CCC[C@H]3C(=O)N(C)CC(=O)N(C)[C@@H](C(C)C)C(=O)O[C@@H]2C)c(N)c1=O [SAD (2)] | 35 | 65 | 12 ± 4 | 15 | 4/8 | 96 | 4/9 | 57(33-61) days | 300 | – | 0/9 | 0/9 | practically ineffective | practically ineffective | 96 | 0.025 | 2.40 | two-to threefold | 4/9 | 50 | Percentage of closed circular pBR322 DNA cleaved ([1]; concn 50 M (so in the source)): 50%
